From patent US7015241B2, “Appetite-stimulating agents and remedies for anorexia” (Eisai Co., Ltd., priority 2001, dated 2006) come the findings set out here.

SMILES strings stand for the structures.

For one data set, the system named is BDF1 mice. Kind of data set: Appetite-stimulating and body weight-increasing effects, intraperitoneal administration once a day for 15 days. The data set is classed as in vivo, mouse. The following applies: BDF1 mice (7 weeks old, female), i.p. once a day for 15 days, vs control group; for body weight: FIG. 1; for food intake: FIG. 2. The method, then:
(§1) A subjective compound was suspended in saline containing 3.5% dimethylsulfoxide and 6.5% Tween 80, and intraperitoneally administered to BDF1 mice (7 weeks old, female) in a given amount once a day for 15 days (day 0 to day 14). To mice of a control group, saline containing 3.5% dimethylsulfoxide and 6.5% Tween 80 was intraperitoneally administered. Administration was conducted at 1 p.m. every day, and the body weight (day 0 to day 15) and the food intake since the preceding day (day 1 to day 15) were weighed immediately before the administration. The experiments were conducted using 5 mice per group for each of the drug-administered group and the control group. The numbers of the compound examples are the same as in the list described above (hereinafter, the same applies).

For the next data set, the system named is mice. Kind of data set: Toxicity observation on successive administration to mice for 15 days. The data set is classed as in vivo. Conditions: 100 mg/kg and 200 mg/kg successively for 15 days. The method, then: as §1
Thus, it is considered that the compound represented by the general formula (I) has low toxicity.

For another data set, the system named is Interleukin-1-beta. The experiment in a line: Gene expression analysis of white adipose tissues by GeneChip (Affymetrix) Murine Genome U74A. The data set is classed as in vivo, mouse. Conditions: day 15, 200 mg/kg i.p. once a day for 15 days, BDF1 mice, Accession M15131. The method, then:
(§2) The compound of the Compound 17 was suspended in saline containing 3.5% dimethylsulfoxide and 6.5% Tween 80, and intraperitoneally administered to BDF1 mice (7 weeks old, female) in an amount of 200 mg/kg once a day for 15 days (day 0 to day 14). To mice of a control group, saline containing 3.5% dimethylsulfoxide and 6.5% Tween 80 was intraperitoneally administered. The experiments were conducted using 5 mice per group for each of the drug-administered group and the control group. On day 15, white adipose tissues were collected from the mice of the drug-administered group and the control group, and were examined for expression levels of mRNA using GeneChip (Affymetrix) Murine Genome U74A. The experimental operation was conducted in accordance with GeneChip Expression Analysis Technical Manual, and the quantitative analysis was conducted using GeneChip Software.

The subject of another data set is Interleukin-6. Described as above. The data set is classed as in vivo, mouse. Conditions: day 15, 200 mg/kg i.p. once a day for 15 days, BDF1 mice, Accession X54542. The method, then: as §2
The subject of data set [1] is griPGHS (Glucocorticoid-regulated inflammatory prostaglandin G/H synthase). The description is as above. It is filed as in vivo, mouse. Conditions: day 15, 200 mg/kg i.p. once a day for 15 days, BDF1 mice, Accession M88242. The method, then: as §2

For the molecule `N#Cc1ccc(S(=O)(=O)Nc2cccc3c(Cl)c[nH]c23)cc1` [Compound 10, N-(3-Chloro-1H-indol-7-yl)-4-cyanobenzenesulfonamide], in the data set with BDF1 mice, the body weight result is given as “increased” and the food intake entry is “increased”. In the data set with mice, the body weight increase result is given as “body weight increase depending on dose”, the “condition of the mice” value was “quite normal condition” and the toxicity result is listed as “no observation indicating toxicity”.
With `Cc1ccc(NS(=O)(=O)c2cccc(C#N)c2)c2[nH]cc(C#N)c12` [Compound 94, 3-Cyano-N-(3-cyano-4-methyl-1H-indol-7-yl)-benzenesulfonamide], in the data set with BDF1 mice, the body weight result was “increased” and the food intake result is listed as “increased”. In the data set with mice, the body weight increase result is on record as “body weight increase depending on dose”, the “condition of the mice” value was “quite normal condition” and the toxicity result was “no observation indicating toxicity”.
With `N#Cc1cccc(S(=O)(=O)Nc2cccc3c(C#N)c[nH]c23)c1` [Compound 51, 3-Cyano-N-(3-cyano-1H-indol-7-yl)benzenesulfonamide], in the data set with BDF1 mice, the body weight entry is “increased” and the food intake result is given as “increased”. For the same molecule, in the data set on mice, the body weight increase result was “body weight increase depending on dose”, the “condition of the mice” value is “quite normal condition” and the toxicity result was “no observation indicating toxicity”.
For `N#Cc1c[nH]c2c(NS(=O)(=O)c3cccc(Cl)c3)cccc12` [Compound 17, 3-Chloro-N-(3-cyano-1H-indol-7-yl)benzenesulfonamide], in the data set on BDF1 mice, the body weight entry was “increased” and the food intake result is recorded as “increased”. Besides, in the data set with mice, the body weight increase entry is recorded as “body weight increase depending on dose”, the “condition of the mice” value is “quite normal condition” and the toxicity entry was “no observation indicating toxicity”. Moreover, the “Expression level ratio (drug-administered group/control group), Interleukin-1-beta mRNA” value in the data set with Interleukin-1-beta is listed as 22%. Further, in the data set with Interleukin-6, the “Expression level ratio (drug-administered group/control group), Interleukin-6 mRNA” value was 24%. Moreover, in data set [1], the “Expression level ratio (drug-administered group/control group), griPGHS mRNA” value is on record as 26%.
